# Reference: PMC10322960 (European Journal of Drug Metabolism and Pharmacokinetics, 2023)
# Legend:
# [1] = following 0.5-mg dose at steady state; not from this study, ref not given; cited from earlier work
# [2] = tested on: CYP1A2, CYP2A6, CYP2B6, CYP2C8, CYP2C9, CYP2C19, CYP2D6, CYP2E1, and CYP4A11; test: Recombinant CYP incubation; format: in vitro ADME, human; conditions: 3 µm ocedurenone, NADPH, 60 min
# [3] = molecular target: T1, CYP2C8 (Homo sapiens, UniProt P10632); test: In vitro P450 inhibition, recombinant CYP2C8; format: in vitro ADME
# T1 sequence (P10632 1-490): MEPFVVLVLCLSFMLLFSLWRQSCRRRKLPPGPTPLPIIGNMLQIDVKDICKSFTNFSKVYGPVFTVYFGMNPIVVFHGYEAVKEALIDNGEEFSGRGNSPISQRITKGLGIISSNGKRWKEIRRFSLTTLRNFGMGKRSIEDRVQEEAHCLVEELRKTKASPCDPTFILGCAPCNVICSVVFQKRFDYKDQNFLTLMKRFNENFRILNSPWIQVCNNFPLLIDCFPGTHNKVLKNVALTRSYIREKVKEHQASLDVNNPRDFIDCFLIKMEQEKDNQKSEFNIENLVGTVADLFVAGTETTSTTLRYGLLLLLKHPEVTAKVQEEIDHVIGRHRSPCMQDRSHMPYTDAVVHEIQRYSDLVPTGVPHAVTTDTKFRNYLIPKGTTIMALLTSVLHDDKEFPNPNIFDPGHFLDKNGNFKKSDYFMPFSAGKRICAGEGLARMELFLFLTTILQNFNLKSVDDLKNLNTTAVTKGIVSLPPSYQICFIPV
smiles,measurement,setting,value
"N#Cc1ccc(N2N=C3c4ccc(C(=O)N5CCC(O)CC5)nc4CC[C@@H]3[C@@H]2C2CCCC2)cc1Cl [Ocedurenone, ocedurenone]",plasma Cmax at steady state,[1],32 to 40 ng/mL
same,metabolism in incubations with other recombinant CYP isoenzymes,[2],minor metabolism
same,percentage remaining activity of CYP2C8,[3]; ocedurenone at 200 μM,26.4%
same,IC50,"[3]; read-out: IC50 CYP2C8, recombinant CYP, results section",> 10 µM
same,inhibition category CYP2C8,[3]; recombinant enzyme,weak inhibition (IC50 >10 μM categorized as weak inhibition)
